Patent US20260345547A1, “USE OF DIHYDROQUERCETIN IN TREATING OCULAR SURFACE DISEASES” (HE UNIVERSITY SCHOOL OF CLINICAL MEDICINE, priority 2022, published 2026)
Values joined by “and” are separate entries in the source; they are usually repeats but may differ in a detail not shown here. Equal values may be shown once.

How the values were obtained:
[1] = tested on: human corneal epithelial (HCE) cells; test: MTS assay: survival rate of HCE cells treated with H2O2 (damage model); assay type: cell-based; details: 300 μM H2O2, 24 h, relative to normal cell group
Description: Human corneal epithelial cells were purchased from the American Type Culture Collection (ATCC). The cell medium used was high-sugar DMEM medium supplemented with 10% (V/V) fetal bovine serum, 100 U/mL penicillin, and 100 μg/mL gentamicin. The cells were cultured in an incubator containing 5% carbon dioxide at 37° C. Cells in the logarithmic growth phase were seeded into a 96-well plate at a density of 1.5×10^5 cells/mL, with 100 μL per well and 6 replicate wells per group. The cells were grouped into a normal cell group, a hydrogen peroxide model group, and intervention groups treated with dihydroquercetin at various concentrations. The assay was performed using an MTS kit (e.g., Promega), and absorbance was measured at 490 nm using a microplate reader. […]
Human corneal epithelial cells were purchased from the American Type Culture Collection (ATCC). […] To measure the colorimetric results, the absorbance value of each well was read at the wavelength of 490 nm using an enzyme-linked immunosorbent assay reader. The results were recorded, and a cell growth curve was plotted with time as the abscissa and absorbance value as the ordinate.
HCE cells were subcultured and seeded at 1.5×10^5 cells/mL, with 100 μL per well. […] To measure the colorimetric results, the absorbance value of each well was read at the wavelength of 490 nm using an enzyme-linked immunosorbent assay reader. […]

[2] = tested on: HCE cells (H2O2-induced oxidative damage); test: MTS assay: anti-oxidative damage effect on HCE cells with H2O2-induced damage; assay type: cell-based, human
Description: (§1) Human corneal epithelial cells were purchased from the American Type Culture Collection (ATCC). The cell medium used was high-sugar DMEM medium supplemented with 10% (V/V) fetal bovine serum, 100 U/mL penicillin, and 100 μg/mL gentamicin. The cells were cultured in an incubator containing 5% carbon dioxide at 37° C. Cells in the logarithmic growth phase were seeded into a 96-well plate at a density of 1.5×10^5 cells/mL, with 100 μL per well and 6 replicate wells per group. The cells were grouped into a normal cell group, a hydrogen peroxide model group, and intervention groups treated with dihydroquercetin at various concentrations. The assay was performed using an MTS kit (e.g., Promega), and absorbance was measured at 490 nm using a microplate reader.
(§2) Survival rate=survival rate of each group/survival rate of normal cell group×100%
Human corneal epithelial cells were purchased from the American Type Culture Collection (ATCC). The cell medium used was high-sugar DMEM medium supplemented with 10% (V/V) fetal bovine serum, 100 U/mL penicillin, and 100 μg/mL gentamicin. The cells were cultured in an incubator containing 5% carbon dioxide at 37° C. Cells in the logarithmic growth phase were seeded into a 96-well plate at a density of 1.5×10^5 cells/mL, with 100 μL per well and 6 replicate wells per group. After 24 h, the cells were treated with H2O2 or dihydroquercetin according to the experimental purpose. […] To measure the colorimetric results, the absorbance value of each well was read at the wavelength of 490 nm using an enzyme-linked immunosorbent assay reader. The results were recorded, and a cell growth curve was plotted with time as the abscissa and absorbance value as the ordinate.
The experiment included 8 groups: a normal control group, a H2O2 model group, and intervention groups treated with various concentrations of dihydroquercetin (0.1-200 μM)+H2O2. […] The survival rate of cells in each group was assessed by the MTS assay to evaluate the protective effect of dihydroquercetin against oxidative damage of HCE cells.

[3] = tested on: corneal neovascularization model in rabbits; test: Corneal neovascularization after corneal alkali burn in rabbits; assay type: in vivo, New Zealand rabbits; details: 50 μL twice daily, ocular, 14 days after treatment, compared to model group; for corneal neovascularization area: P<0.01
Text: […] 3-month-old healthy New Zealand rabbits, half male and half female, were randomly assigned to six groups, with each group containing six rabbits. The groups were designated as blank control group (N), model control group (M), positive drug group (LEV), low concentration dihydroquercetin group (E1), high concentration dihydroquercetin group (E2) and solvent control group (R). Identification was marked on the rabbits' ears and cage cards, which included details such as the experiment name, experiment number, group designation, administration dosage, and administration schedule.
In this experiment, the corneal neovascularization model in rabbits was established using a chemical injury method. The rabbits were generally anesthetized with an intravenous injection of 1% pentobarbital sodium administered via the marginal ear vein. […] A 6 mm diameter filter paper was soaked in a 1 mol/L NaOH solution for 1 minute. The soaked filter paper was then applied to the center of the cornea for 30 seconds, after which it was removed. The ocular surface and conjunctival sac were subsequently rinsed with physiological saline for 1 minute. Following the modeling procedure, levofloxacin was applied as eye drops to the modeled eye to prevent postoperative infection.
The route of administration was ocular, and treatment commenced the day before modeling. No drug was administered to the blank control group or model control group. In the positive drug group, 50 μL of levofloxacin was applied to the conjunctival sac. In the low concentration group, 50 μL of a 0.03% dihydroquercetin solution was applied, while in the high concentration group, 50 μL of a 0.3% dihydroquercetin solution was applied. All treatments were administered twice daily at 9:00 a.m. and 3:00 p.m.
Fourteen days after treatment, ocular surface inflammation and neovascularization were assessed in each experimental group. The area of neovascularization was imaged, recorded, and subsequently quantified. Data were analyzed statistically using GraphPad Prism 8.0 software.

HCE cells = test: MTS assay: proliferative and toxic effects of dihydroquercetin on HCE cells; assay type: cell-based, human; details: 24 h; for cell viability of HCE cells: compared to control group
Description: as §1, §2
Human corneal epithelial cells were purchased from the American Type Culture Collection (ATCC). The cell medium used was high-sugar DMEM medium supplemented with 10% (V/V) fetal bovine serum, 100 U/mL penicillin, and 100 μg/mL gentamicin. The cells were cultured in an incubator containing 5% carbon dioxide at 37° C. Cells in the logarithmic growth phase were seeded into a 96-well plate at a density of 1.5×10^5 cells/mL, with 100 μL per well and 6 replicate wells per group. After 24 h, the cells were treated with H2O2 or dihydroquercetin according to the experimental purpose. For color development, 20 μL of MTS solution was added to each well, and the cells were incubated for another 2-4 h. To measure the colorimetric results, the absorbance value of each well was read at the wavelength of 490 nm using an enzyme-linked immunosorbent assay reader. The results were recorded, and a cell growth curve was plotted with time as the abscissa and absorbance value as the ordinate.
Various concentrations of dihydroquercetin (0.01-600 μM) were applied to HCE cells, and 6 replicate wells were set for each group to ensure the reliability and accuracy of the experimental data. The proliferative effect of the drug on the cells was then assessed.

mouse model of dry eye [4] = test: Tear secretion amount (phenol red cotton thread) in dry eye mice; assay type: in vivo, C57/BL6 mice; details: 5 μL drops twice daily, ocular, day 14 of modeling, compared to model control group, P<0.001
Text: (§3) Out of 50 healthy 8-week-old female C57/BL6 mice, 30 were selected for the experiment. Five mice were randomly assigned to each group, resulting in a total of six groups: blank control group (N), model group (M), positive drug group (CsA), low concentration traditional Chinese medicine group (SL), medium concentration traditional Chinese medicine group (SM), and high concentration traditional Chinese medicine group (SH). During grouping, identification was marked on the mice's tails and cage cards, which included details such as the experiment name, experiment number, group designation, administration dosage, and administration schedule.
(§4) In this experiment, a mouse model of dry eye was established using an intelligent dry environment control system in combination with scopolamine injection. A two-step dehumidification method was used to control the humidity of the environment during the modeling process. Initially, a temperature-adjustable industrial dehumidifier was used to reduce the room humidity to 40%±5%. […]
The mice were restrained without anesthesia. […] The thread was then placed on a printable ruler, and the length of the red-stained portion was measured and recorded. The data were analyzed statistically using GraphPad Prism 8.0 software. […]

mouse model of dry eye [5] = test: Tear film breakup time in dry eye mice; assay type: in vivo, C57/BL6 mice; details: treatment groups (0.03% and 0.3%), ocular; day 14 of modeling; compared to model control group, P<0.05
Text: as §3, §4
The mice were restrained without anesthesia, and sodium fluorescein solution was instilled into their conjunctival sacs. […] The time until the appearance of a block spot due to tear film breakup was recorded. […] The data were analyzed statistically using GraphPad Prism 8.0 software. […]

mouse model of dry eye [6] = test: Sodium fluorescein staining of cornea (corneal epithelial damage) in dry eye mice; assay type: in vivo, C57/BL6 mice; details: day 14 of modeling
Text: as §3
In this experiment, a mouse model of dry eye was established using an intelligent dry environment control system in combination with scopolamine injection. A two-step dehumidification method was used to control the humidity of the environment during the modeling process. […]
The corneal morphology of experimental mice in each group was observed before modeling and 14 days after modeling. […] The sodium fluorescein-stained corneas of the mice were then illuminated with cobalt blue light, observed, imaged and recorded with a slit lamp. […] Sodium fluorescein residues on the corneal surface was scored and recorded. The data were analyzed statistically using GraphPad Prism 8.0 software.

Compound: OO [H2O2, hydrogen peroxide, reference compound]
- viability at 300 µM [1]: 49%
- cell survival rate, H2O2 model group ([2]; 300 μM H2O2, compared to control group, P<0.001): lower

Compound: C[C@H]1COc2c(N3CCN(C)CC3)c(F)cc3c(=O)c(C(=O)O)cn1c23 [levofloxacin, reference compound]
- new blood vessels (slit lamp morphology) [3]: fewer new blood vessels
- corneal neovascularization area [3]: smaller

Compound: O=C1c2c(O)cc(O)cc2O[C@H](c2ccc(O)c(O)c2)[C@H]1O [dihydroquercetin]
- cell viability of HCE cells (HCE cells; 50 μM): significantly higher
- cell viability of HCE cells (HCE cells; 100 μM): significantly higher
- cell viability of HCE cells (HCE cells; 200 μM): significantly higher
- cell viability of HCE cells (HCE cells; 600 μM): significantly reduced
- concentration that has a proliferation effect on HCE cells (HCE cells; MTS assay): 25 to 200 µM and 50 to 200 µM
- concentration with toxic effect on HCE cells (HCE cells; MTS assay): 600 µM
- concentration offering protection against H2O2-induced oxidative stress damage in HCE cells ([2]; 300 μM H2O2, MTS assay): 25 to 200 µM
- cell survival rate, dihydroquercetin + H2O2 ([2]; 25-200 μM with 300 μM H2O2, compared to H2O2 model group, P<0.01): higher
- tear secretion (mouse model of dry eye [4]; high concentration group (E2), 0.3%): significantly increased
- tear secretion (mouse model of dry eye [4]; low concentration group (E1), 0.03%): significantly increased
- tear film breakup time (mouse model of dry eye [5]): increased significantly
- sodium fluorescein staining of cornea (morphology) (mouse model of dry eye [6]; compared to model control group): significant reduction in staining
- corneal epithelial damage score, sodium fluorescein staining (mouse model of dry eye [6]; treatment groups (0.03% and 0.3%), ocular, compared to model group, P<0.001): significant reduction in damage
- new blood vessels (slit lamp morphology) ([3]; high concentration, 0.3%): fewer new blood vessels
- corneal neovascularization area ([3]; high concentration, 0.3%): smaller
- new blood vessels (slit lamp morphology) ([3]; low concentration, 0.03%): fewer new blood vessels
- corneal neovascularization area ([3]; low concentration, 0.03%): smaller
